According to article PMC12586182 (Frontiers in Oncology, 2025):

What was measured:
CK1γ3 = target: T1, CK1γ3 (Homo sapiens, UniProt Q9Y6M4); experiment: Kinase panel profiling at 1 µmol/L (mobility shift assay, Carna); format: biochemical; conditions: 1 µmol/L of BTK inhibitor
T1 construct: purchased Carna Biosciences

Haspin = target: T2, Haspin (Homo sapiens, UniProt Q8TF76); experiment: as above; format: biochemical; conditions: 1 µmol/L of BTK inhibitor
T2 construct: purchased Carna Biosciences
T2 sequence (Q8TF76 1-798): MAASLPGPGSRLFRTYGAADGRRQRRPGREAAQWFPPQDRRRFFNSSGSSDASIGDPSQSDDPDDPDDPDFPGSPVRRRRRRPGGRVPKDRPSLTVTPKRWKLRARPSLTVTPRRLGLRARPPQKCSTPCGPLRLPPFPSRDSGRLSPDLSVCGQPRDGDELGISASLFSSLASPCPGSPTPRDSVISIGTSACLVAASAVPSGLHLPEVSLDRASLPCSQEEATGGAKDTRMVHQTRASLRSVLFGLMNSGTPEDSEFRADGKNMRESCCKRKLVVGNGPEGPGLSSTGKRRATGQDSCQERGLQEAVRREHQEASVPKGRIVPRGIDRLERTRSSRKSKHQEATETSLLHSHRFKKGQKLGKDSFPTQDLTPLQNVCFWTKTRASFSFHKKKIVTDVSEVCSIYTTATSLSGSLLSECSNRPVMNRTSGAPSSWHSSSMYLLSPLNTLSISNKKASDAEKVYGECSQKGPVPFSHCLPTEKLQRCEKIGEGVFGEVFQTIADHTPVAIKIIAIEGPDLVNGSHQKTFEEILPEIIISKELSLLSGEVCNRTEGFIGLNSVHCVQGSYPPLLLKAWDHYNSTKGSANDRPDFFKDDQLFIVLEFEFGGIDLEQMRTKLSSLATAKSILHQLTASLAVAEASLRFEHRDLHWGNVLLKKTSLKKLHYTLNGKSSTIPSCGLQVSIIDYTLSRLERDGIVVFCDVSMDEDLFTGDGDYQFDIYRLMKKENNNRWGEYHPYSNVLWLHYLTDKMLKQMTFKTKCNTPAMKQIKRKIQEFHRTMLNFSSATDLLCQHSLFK

SRC = target: T3, SRC (Homo sapiens, UniProt P12931); experiment: as above; format: biochemical; conditions: 1 µmol/L of BTK inhibitor
T3 construct: purchased Carna Biosciences

YES = YES (Homo sapiens, UniProt P07947); experiment: Kinase enzyme activity assay (mobility shift assay, Carna); conditions: 1 µmol/L of BTK inhibitor
PLK3 = target: T4, PLK3 (Homo sapiens, UniProt Q9H4B4); experiment: Kinase panel profiling at 1 µmol/L (mobility shift assay, Carna); format: biochemical; conditions: 1 µmol/L of BTK inhibitor
T4 construct: purchased Carna Biosciences

JNK3 = target: T5, JNK3 (Homo sapiens, UniProt P53779); experiment: as above; format: biochemical; conditions: 1 µmol/L of BTK inhibitor
T5 construct: purchased Carna Biosciences

NEK9 = target: T6, NEK9 (Homo sapiens, UniProt Q8TD19); experiment: as above; format: biochemical; conditions: 1 µmol/L of BTK inhibitor
T6 construct: purchased Carna Biosciences
T6 sequence (Q8TD19 1-979): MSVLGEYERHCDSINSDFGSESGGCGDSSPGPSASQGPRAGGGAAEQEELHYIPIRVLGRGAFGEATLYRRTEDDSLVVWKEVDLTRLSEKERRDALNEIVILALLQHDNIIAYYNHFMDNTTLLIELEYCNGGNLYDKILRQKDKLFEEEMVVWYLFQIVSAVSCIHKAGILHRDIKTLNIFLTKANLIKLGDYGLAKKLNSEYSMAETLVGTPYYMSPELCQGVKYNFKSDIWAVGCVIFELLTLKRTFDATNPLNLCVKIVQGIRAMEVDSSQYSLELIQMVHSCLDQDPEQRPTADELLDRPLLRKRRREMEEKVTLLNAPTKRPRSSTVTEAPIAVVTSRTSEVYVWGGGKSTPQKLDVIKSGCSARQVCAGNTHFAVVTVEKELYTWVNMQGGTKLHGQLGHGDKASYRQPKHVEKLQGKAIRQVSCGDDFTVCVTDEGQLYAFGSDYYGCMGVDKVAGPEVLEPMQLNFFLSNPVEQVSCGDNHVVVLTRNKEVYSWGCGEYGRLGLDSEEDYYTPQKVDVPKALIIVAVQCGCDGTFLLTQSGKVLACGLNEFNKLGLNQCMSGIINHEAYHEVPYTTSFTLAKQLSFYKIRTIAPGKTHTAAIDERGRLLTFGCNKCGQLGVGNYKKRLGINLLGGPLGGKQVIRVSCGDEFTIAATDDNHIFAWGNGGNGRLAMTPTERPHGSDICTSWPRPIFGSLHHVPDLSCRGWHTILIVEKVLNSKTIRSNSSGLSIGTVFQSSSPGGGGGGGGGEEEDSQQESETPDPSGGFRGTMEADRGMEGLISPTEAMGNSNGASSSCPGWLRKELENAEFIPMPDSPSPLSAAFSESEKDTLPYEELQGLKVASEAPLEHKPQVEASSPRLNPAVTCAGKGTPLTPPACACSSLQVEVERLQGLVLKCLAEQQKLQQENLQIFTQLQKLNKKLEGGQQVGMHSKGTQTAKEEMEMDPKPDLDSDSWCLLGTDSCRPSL

B-RAF [V600E] = B-RAF [V600E] (Homo sapiens, UniProt P15056, V600E); experiment: Kinase enzyme activity assay at 1 mmol/L ATP (Carna)
Protocol: (§1) Inhibition of MLK1 and B-RAF at K M,ATP was determined in a radiometric assay using ^32P-labeled ATP at Eurofins Cerep SA (Celle-Lévescault, France).

BMX = target: T7, BMX (Homo sapiens, UniProt P51813); experiment: Kinase panel profiling at 1 µmol/L (mobility shift assay, Carna); format: biochemical; conditions: 1 µmol/L of BTK inhibitor
T7 construct: purchased Carna Biosciences

SIK3 = SIK3 (Homo sapiens, UniProt Q9Y2K2); experiment: Kinase enzyme activity assay at 1 mmol/L ATP (Carna)
Sequence of SIK3 (Q9Y2K2 whole entry): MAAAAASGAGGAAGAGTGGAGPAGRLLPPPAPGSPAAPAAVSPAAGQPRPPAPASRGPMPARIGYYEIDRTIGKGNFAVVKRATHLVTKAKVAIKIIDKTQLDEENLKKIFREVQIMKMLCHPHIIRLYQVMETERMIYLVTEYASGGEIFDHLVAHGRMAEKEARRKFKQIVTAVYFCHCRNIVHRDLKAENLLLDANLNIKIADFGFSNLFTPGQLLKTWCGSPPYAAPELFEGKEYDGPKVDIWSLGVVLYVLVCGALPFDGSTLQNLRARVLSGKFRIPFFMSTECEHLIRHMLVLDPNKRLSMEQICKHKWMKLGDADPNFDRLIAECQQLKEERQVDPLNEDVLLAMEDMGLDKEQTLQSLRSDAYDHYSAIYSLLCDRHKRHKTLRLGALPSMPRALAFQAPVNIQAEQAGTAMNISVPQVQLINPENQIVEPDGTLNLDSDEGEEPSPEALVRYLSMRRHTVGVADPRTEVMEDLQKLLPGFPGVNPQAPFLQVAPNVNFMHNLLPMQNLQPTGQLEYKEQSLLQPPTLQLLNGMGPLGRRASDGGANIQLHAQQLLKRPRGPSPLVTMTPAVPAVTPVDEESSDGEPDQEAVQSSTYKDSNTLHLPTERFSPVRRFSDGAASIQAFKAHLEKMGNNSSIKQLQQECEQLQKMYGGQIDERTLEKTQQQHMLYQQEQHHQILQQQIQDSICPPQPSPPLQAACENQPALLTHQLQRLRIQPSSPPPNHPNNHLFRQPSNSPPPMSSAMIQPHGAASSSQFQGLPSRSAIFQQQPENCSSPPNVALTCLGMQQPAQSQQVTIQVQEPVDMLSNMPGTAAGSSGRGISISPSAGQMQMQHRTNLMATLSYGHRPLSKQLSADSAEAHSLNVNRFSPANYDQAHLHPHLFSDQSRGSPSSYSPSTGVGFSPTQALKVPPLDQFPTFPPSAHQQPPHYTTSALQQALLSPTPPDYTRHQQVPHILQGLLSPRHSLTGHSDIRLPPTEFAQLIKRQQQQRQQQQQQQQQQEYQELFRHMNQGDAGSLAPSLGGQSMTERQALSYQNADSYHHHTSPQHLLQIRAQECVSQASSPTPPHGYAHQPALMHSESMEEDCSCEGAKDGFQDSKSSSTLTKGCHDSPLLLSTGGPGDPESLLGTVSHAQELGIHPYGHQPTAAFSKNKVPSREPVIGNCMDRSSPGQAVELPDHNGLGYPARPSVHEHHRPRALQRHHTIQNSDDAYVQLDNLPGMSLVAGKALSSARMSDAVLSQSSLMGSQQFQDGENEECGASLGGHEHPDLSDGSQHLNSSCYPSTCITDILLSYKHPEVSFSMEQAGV
Protocol: as §1

T5 sequence (P53779 whole entry): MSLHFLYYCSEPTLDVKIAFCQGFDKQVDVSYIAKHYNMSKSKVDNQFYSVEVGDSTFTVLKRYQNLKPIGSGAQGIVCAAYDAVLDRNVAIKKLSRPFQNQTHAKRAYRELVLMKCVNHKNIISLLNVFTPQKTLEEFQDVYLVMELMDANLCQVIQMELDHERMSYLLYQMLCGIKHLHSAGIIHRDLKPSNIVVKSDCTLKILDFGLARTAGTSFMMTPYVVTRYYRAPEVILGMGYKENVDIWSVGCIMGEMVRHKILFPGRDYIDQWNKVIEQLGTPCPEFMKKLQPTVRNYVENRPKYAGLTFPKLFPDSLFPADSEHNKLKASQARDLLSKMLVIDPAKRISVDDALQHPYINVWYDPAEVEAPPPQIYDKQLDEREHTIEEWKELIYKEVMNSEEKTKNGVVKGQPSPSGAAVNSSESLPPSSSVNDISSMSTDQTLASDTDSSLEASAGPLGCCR
T1 sequence (Q9Y6M4 whole entry): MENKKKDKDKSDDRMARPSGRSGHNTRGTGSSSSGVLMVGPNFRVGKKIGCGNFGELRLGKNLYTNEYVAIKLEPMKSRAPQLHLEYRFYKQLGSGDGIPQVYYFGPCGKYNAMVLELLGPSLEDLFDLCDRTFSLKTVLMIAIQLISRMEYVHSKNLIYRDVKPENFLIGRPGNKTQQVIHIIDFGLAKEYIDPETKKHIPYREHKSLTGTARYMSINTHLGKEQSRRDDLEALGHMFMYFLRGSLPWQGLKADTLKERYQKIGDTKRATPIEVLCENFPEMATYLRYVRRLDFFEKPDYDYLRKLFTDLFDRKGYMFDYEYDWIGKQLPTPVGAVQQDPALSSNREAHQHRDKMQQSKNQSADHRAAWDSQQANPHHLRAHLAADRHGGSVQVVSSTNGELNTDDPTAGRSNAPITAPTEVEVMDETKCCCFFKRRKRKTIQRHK
T4 sequence (Q9H4B4 whole entry): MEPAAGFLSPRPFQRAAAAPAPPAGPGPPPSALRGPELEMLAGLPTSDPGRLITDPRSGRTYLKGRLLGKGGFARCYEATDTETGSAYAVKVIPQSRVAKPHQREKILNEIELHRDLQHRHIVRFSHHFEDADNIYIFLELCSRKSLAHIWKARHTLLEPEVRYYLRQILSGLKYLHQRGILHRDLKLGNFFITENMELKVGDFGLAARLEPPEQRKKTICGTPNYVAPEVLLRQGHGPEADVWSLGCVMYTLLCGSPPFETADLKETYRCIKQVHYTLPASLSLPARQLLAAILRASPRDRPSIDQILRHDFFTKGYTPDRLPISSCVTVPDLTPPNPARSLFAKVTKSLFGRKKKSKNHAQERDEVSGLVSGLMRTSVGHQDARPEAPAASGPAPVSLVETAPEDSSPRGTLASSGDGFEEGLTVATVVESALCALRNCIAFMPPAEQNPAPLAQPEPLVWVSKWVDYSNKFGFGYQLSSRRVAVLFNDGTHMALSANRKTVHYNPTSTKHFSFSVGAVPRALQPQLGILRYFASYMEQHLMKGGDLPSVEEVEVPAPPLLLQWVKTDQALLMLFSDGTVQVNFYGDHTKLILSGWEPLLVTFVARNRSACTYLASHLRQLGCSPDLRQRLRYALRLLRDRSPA
T3 sequence (P12931 whole entry): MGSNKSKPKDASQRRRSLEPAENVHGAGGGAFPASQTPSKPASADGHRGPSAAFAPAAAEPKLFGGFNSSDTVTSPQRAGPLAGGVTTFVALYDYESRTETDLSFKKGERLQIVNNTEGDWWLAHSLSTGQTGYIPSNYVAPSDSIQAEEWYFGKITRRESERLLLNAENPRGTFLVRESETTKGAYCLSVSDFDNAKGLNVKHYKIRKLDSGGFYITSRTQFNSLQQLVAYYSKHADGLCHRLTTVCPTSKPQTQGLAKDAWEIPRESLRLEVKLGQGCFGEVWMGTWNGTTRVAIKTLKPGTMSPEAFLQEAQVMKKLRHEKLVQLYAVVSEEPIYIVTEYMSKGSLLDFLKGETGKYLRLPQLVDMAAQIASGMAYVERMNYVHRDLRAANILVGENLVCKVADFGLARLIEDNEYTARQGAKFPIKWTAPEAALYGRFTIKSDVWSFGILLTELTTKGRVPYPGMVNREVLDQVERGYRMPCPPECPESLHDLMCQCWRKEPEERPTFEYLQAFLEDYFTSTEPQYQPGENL
Sequence of YES (P07947 whole entry): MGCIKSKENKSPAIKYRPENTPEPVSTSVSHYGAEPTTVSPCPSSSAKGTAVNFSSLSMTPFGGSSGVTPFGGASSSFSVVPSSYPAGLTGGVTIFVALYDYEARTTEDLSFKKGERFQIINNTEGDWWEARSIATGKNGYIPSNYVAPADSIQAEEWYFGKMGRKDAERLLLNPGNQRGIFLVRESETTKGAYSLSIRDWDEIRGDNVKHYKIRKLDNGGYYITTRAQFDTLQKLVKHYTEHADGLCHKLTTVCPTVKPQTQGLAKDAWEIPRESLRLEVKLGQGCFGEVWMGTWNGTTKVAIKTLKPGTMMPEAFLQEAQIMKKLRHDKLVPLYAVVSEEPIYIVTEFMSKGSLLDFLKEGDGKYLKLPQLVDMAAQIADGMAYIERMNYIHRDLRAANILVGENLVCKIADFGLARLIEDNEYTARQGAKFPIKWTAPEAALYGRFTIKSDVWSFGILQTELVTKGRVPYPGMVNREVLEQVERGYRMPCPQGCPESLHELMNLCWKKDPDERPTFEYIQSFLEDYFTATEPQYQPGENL
T7 sequence (P51813 whole entry): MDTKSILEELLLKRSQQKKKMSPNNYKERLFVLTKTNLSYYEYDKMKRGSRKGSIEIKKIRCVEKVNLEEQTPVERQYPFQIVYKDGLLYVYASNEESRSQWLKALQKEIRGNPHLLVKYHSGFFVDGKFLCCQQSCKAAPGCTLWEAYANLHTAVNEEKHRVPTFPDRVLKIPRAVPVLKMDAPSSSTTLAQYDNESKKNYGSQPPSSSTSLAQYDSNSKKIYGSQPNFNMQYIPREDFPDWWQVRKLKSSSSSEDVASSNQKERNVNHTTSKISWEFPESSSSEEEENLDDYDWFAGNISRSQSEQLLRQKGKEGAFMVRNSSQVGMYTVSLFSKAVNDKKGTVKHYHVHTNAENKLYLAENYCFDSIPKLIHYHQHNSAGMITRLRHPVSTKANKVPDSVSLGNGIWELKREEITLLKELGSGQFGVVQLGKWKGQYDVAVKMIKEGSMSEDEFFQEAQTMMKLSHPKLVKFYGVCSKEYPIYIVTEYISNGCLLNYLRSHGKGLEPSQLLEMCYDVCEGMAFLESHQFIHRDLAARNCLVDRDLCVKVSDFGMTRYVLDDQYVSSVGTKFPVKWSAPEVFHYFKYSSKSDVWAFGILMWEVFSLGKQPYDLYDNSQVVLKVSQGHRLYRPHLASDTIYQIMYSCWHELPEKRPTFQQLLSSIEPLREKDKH

SMILES: CC#CC(=O)N1CCC[C@H]1c1nc(-c2ccc(C(=O)Nc3ccccn3)cc2)c2c(N)nccn12 [acalabrutinib]
- Percentage inhibition of kinase enzyme activity (CK1γ3): -14.72%
- Percentage inhibition of kinase enzyme activity (Haspin): 5.31%
- Percentage inhibition of kinase enzyme activity (SRC): 10.46%
- Percentage inhibition of kinase enzyme activity (YES): 21.84%
- Percentage inhibition of kinase enzyme activity (PLK3): 1.76%
- Percentage inhibition of kinase enzyme activity (JNK3): -0.89%
- Percentage inhibition of kinase enzyme activity (NEK9): -3.18%

SMILES: C=CC(=O)N1CCC[C@@H](n2nc(-c3ccc(Oc4ccccc4)cc3)c3c(N)ncnc32)C1 [ibrutinib]
- Percentage inhibition of kinase enzyme activity (CK1γ3): 3.83%
- Percentage inhibition of kinase enzyme activity (Haspin): 2.53%
- Percentage inhibition of kinase enzyme activity (PLK3): 1.53%
- Percentage inhibition of kinase enzyme activity (JNK3): 0.98%
- Percentage inhibition of kinase enzyme activity (NEK9): -3.28%

SMILES: O=C(c1ccc(Oc2ccccc2)cc1Cl)c1c[nH]c2ncnc(N[C@@H]3CC[C@@H](CO)OC3)c12 [nemtabrutinib]
- IC50 (B-RAF [V600E]): 0.22 µM
- Percentage inhibition of kinase enzyme activity (CK1γ3): 3.75%
- Percentage inhibition of kinase enzyme activity (BMX): 100.05%
- IC50 (SIK3): 9.32 µM
- Percentage inhibition of kinase enzyme activity (Haspin): -1.40%
- Percentage inhibition of kinase enzyme activity (PLK3): 5.13%
- Percentage inhibition of kinase enzyme activity (JNK3): -2.93%
- Percentage inhibition of kinase enzyme activity (NEK9): -0.83%

SMILES: COc1ccc(F)cc1C(=O)NCc1ccc(-c2nn([C@@H](C)C(F)(F)F)c(N)c2C(N)=O)cc1 [pirtobrutinib]
- Percentage inhibition of kinase enzyme activity (CK1γ3): -0.93%
- Percentage inhibition of kinase enzyme activity (BMX): 29.35%
- Percentage inhibition of kinase enzyme activity (Haspin): -3.18%
- Percentage inhibition of kinase enzyme activity (SRC): 4.75%
- Percentage inhibition of kinase enzyme activity (YES): 72.60%
- Percentage inhibition of kinase enzyme activity (PLK3): -1.13%
- Percentage inhibition of kinase enzyme activity (JNK3): 0.49%
- Percentage inhibition of kinase enzyme activity (NEK9): -2.20%
